Where a chain is given by its changes, count along the chain named. Names may count otherwise. “Also recorded” adds a separate entry of the source.
Experiments:
[1] = system: ETB-dependent NO. generation in HPAECs; experiment: NO. metabolites (NO2−, NO3−) in ET-1-stimulated HPAECs; format: cell-based, human
Method: Cell culture and treatments. Human pulmonary artery endothelial cells (HPAECs) (Lonza) (male donors) were grown to confluence using phenol-free EGM-2 medium supplemented with 5% fetal bovine serum at 37° C., 5% CO2. Cells were passaged twice-weekly using 0.5% trypsin/EDTA, and experiments were performed on cells from passages 4-10. Aldosterone (Steraloids) and ET-1 (1-100 nM) (Sigma-Aldrich) were dissolved in dimethylsufloxide (10 nmol/L) and deoxygenated water, respectively, which served as vehicle controls. Cells were treated with aldosterone (10^−−10^−7 mol/L) for 24 h and in selected experiments co-incubated with the mineralocorticoid receptor inhibitor spironolactone (10 μM/l) (Sigma-Aldrich).

[2] = system: HPAECs; experiment: 3-Nitrotyrosine immunohistochemistry in HPAECs; format: cell-based, human; settings: V 24.1±3.3, n=5
Method: 3-Nitrotyrosine immunohistochemistry. Cells grown to confluence on glass chamber slides were fixed following treatments and anti-3-nitrotyrosine immunohistochemistry (Santa Cruz Biotechnology) was performed using the 3,3′-diaminobenzidine substrate method (Vector laboratories) as described previously.^1

[3] = system: PGC-1α / steroidogenesis factor-1 (SF); experiment: Co-immunoprecipitation of PGC-1α with SF in HPAECs; format: cell-based, human; settings: ET-1 10 nM, 24 h, n=3
Method: Co-immunoprecipitation of proteins. Cell monolayers were washed twice with ice-cold PBS and incubated on ice with RIPA buffer supplemented with various protease inhibitors (Millpore). Cells were scraped with a rubber policeman and samples were rotated at 4° C. for 15 min. Lysates were centrifuged at 14,000×g at 4° C. for 15 min and the then pre-cleared with a 50% slurry of Protein G agarose beads (Santa Cruz Biotechnology) mixed with PBS. Following removal of the beads by centrifugation, cell lysates were incubated with an anti-ETB or anti-PGC-1α antibody (Santa Cruz Biotechnology) overnight at 4° C. The immunocomplex was captured by incubating lysates with 50% Protein G agarose bead slurry at 4° C. for 1 h. Beads were collected by pulse centrifugation, resuspended in non-reducing sample buffer, and then boiled for 10 min to dissociate the immunocomplex from the beads. Western analysis was performed with an anti-SF (Santa Cruz) or anti-sulfenic acid (R—SOH) antibody (Millpore) as described above.

[4] = system: HPAECs; experiment: Amplex Red assay of hydrogen peroxide levels in HPAECs; format: cell-based, human; settings: ET-1 10 nM, HPAECs; p=0.43, n=4
Method: Human pulmonary artery endothelial cells (HPAECs) (Lonza) (male donors) were grown to confluence using phenol-free EGM-2 medium supplemented with 5% fetal bovine serum at 37° C., 5% CO2. Cells were passaged twice-weekly using 0.5% trypsin/EDTA, and experiments were performed on cells from passages 4-10. Aldosterone (Steraloids) and ET-1 (1-100 nM) (Sigma-Aldrich) were dissolved in dimethylsufloxide (10 nmol/L) and deoxygenated water, respectively, which served as vehicle controls. Cells were treated with aldosterone (10^−−10^−7 mol/L) for 24 h and in selected experiments co-incubated with the mineralocorticoid receptor inhibitor spironolactone (10 μM/l) (Sigma-Aldrich).

[5] = system: eNOS; experiment: eNOS activity ([14C] arginine, NOS activity kit) in HPAECs; format: cell-based, human; settings: ET-1 (10 nM) stimulated HPAECs, without or with aldosterone; n=3
Method: eNOS activity. eNOS activity was measured using the NOS activity kit (Cayman) according to the manufacturer's instructions with some modifications. Cells were washed with PBS containing 1 mM EDTA, transferred to a microcentrifuge tube, and centrifuged at 14,000×g at 4° C. for 2 min. The supernatant was decanted and homogenization buffer (250 mM Tris-HCl, pH 7.4, 6 μM BH4, 2 μM flavin adenine dinucleotide, and 2 μM flavin adenine mononucleotide) was added to the cell pellets. […] The samples were then centrifuged at 14,000×g for 30 seconds and radioactivity of the eluant was quantified in a liquid scintillation counter (Beckman-Coulter).

[6] = system: CYP11B2 (aldosterone synthase); experiment: CYP11B2 protein expression in HPAECs by Western analysis; format: cell-based, human; settings: 24 h, n=3
Method: (§1) Cell culture and treatments. Human pulmonary artery endothelial cells (HPAECs) (Lonza) (male donors) were grown to confluence using phenol-free EGM-2 medium supplemented with 5% fetal bovine serum at 37° C., 5% CO2. Cells were passaged twice-weekly using 0.5% trypsin/EDTA, and experiments were performed on cells from passages 4-10. Aldosterone (Steraloids) and ET-1 (1-100 nM) (Sigma-Aldrich) were dissolved in dimethylsufloxide ([…]) and deoxygenated water, respectively, which served as vehicle controls. Cells were treated with aldosterone (10^−−10^−7 mol/L) for 24 h and in selected experiments co-incubated with the mineralocorticoid receptor inhibitor spironolactone (10 μM/l) (Sigma-Aldrich).
(§2) Immunoblotting. Proteins were size fractionated electrophoretically using SDS-PAGE and transferred to polyvinylidene fluoride membranes. The membranes were incubated with anti-ETA (Santa Cruz Biotechnology), anti-ETB (Santa Cruz Biotechnology), anti-NOX4 (Santa Cruz Biotechnology), anti-p22P^phox (Santa Cruz), anti-eNOS (Cell Signaling), anti-PGC-1α (Santa Cruz Biotechnology), and anti-SF (Santa Cruz Biotechnology) antibodies overnight at 4° C. and visualized using the ECL detection system (Amersham Biosciences). In experiments to assess ETA expression, purified ETA protein (Novus Biological) was loaded to serve as an internal control.

[7] = system: PGC-1α and steroidogenesis factor-1 (SF); experiment: PGC-1α and SF protein expression in HPAECs by Western analysis; format: cell-based, human; settings: for PGC-1α protein expression levels: 24 h, n=3
Method: as §1, §2

[8] = system: HPAECs; experiment: Aldosterone levels in HPAEC culture medium by enzyme immunoassay; format: cell-based, human; settings: 24 h, n=4
[9] = system: CYP11B2 promoter; experiment: Chromatin immunoprecipitation assay, CYP11B2 promoter; format: cell-based, human; settings: ET-1 10 nM, 24 h; vs V 16.3±9.8; n=3
Method: Chromatin immunoprecipitation assay. Chromatin immunoprecipitation assays were performed using the QuikChIP assay (Imgenex) according to the manufacturer's instructions. PCR amplification was performed on the proximal region of the CYP11B2 promoter region containing the gonadotrope-specific element ^51. The primers used were: forward 5′-[…]-3′ (SEQ ID NO:2) and reverse 5′-[…]-3′ (SEQ ID NO: 3). CYP11B2 primers used for PCR were forward: 5′ […]-3′ (SEQ ID NO: 4) and reverse: 5′-[…]-3′ (SEQ ID NO:5).

[10] = system: rats with SU-5416/hypoxia-induced PAH; experiment: SU-5416/hypoxia-induced PAH, prevention study with eplerenone; format: in vivo, rat; settings: SU-5416 (20 mg/kg s.c.) plus chronic hypoxia 21 days vs normal rats; n=5
[11] = target: T1, ETB (Homo sapiens, UniProt P24530); experiment: Disulfide bond formation of ETB in transfected COS-7 cells exposed to H2O2; format: cell-based; settings: H2O2 200 μmol/L for 20 min
T1 construct: host or cells: COS-7
T1 sequence (P24530 27-442): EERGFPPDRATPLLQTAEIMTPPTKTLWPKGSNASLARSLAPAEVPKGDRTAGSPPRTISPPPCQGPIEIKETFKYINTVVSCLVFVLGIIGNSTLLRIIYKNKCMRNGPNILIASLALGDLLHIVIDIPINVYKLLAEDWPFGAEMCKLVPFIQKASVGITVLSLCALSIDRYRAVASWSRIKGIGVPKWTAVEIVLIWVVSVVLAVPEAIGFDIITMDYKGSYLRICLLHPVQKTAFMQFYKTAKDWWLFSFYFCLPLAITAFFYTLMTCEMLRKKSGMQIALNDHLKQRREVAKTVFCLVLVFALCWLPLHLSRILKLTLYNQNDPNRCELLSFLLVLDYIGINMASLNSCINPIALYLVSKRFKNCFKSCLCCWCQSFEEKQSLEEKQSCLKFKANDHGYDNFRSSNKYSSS
Method: Western analysis to detect ETB disfulfide bond formation. Western analysis to detect ETB disulfide bond formation was performed as described previously.^7 Briefly, protein extracts from cells were lysed in alkylating buffer containing 0.1 M Tris-HCL, pH 6.8, 1% SDS, 100 mM iodoacetamide, and 100 mM N-ethylmaleimide, and sonicated on ice for 5 min followed by a 30-min incubation at 25° C. Alkylated proteins were then precipitated with acetone. Proteins were resuspended in 50 μl of 0.1 M Tris-HCl, pH 7.4, 1% SDS; and disulfides were reduced with 5 mM tris(2-carboxyethyl)phosphine hydrochloride (TCEP). Following a 20-min incubation at 25° C., TCEP was removed with a Micro Bio-Spin™ column 6 (Bio-Rad), and 1% SDS was added to the eluant. The cysteines previously participating in a disulfide bond, now reduced, were labeled with 1 mM polyethylene glycol-conjugated maleimide (molecular mass 10 kDa) (Fluka). After a 1-h incubation at 25° C., proteins were precipitated with acetone, resuspended in 50 μl of non-reducing SDS electrophoresis buffer, and boiled for 10 min. Protein samples were then size-fractionated electrophoretically using SDS-PAGE, and transferred to a polyvinylidene fluoride membrane. […]

[12] = system: ETB-dependent NO. synthesis in COS-7 cells; experiment: ETB-dependent NO2− formation in transfected COS-7 cells after H2O2; format: cell-based, monkey (African green monkey); settings: COS-7 cells co-expressing WT-eNOS; H2O2 200 μmol/L 60 min, then ET-1 10 nM 10 min; n=4
Method: NO. metabolites. Nitrite (NO2^−) and nitrate (NO3^−) were measured in cell culture medium containing 2% fetal bovine serum and L-arginine (1 mmol/l) (Sigma-Aldrich) by 1(H)-naphthotriazole fluorescence (Cayman) as previously reported.^1 To measure NO2^− levels in whole lung tissue, lung specimens were harvested from rats and snap frozen in liquid nitrogen. Samples were thawed, homogenized in PBS (pH 7.4), and centrifuged at 14,000×g at 4° C. for 20 min. The supernatant was ultrafiltered using a 30 kDa molecular weight filter (Millpore), and the eluant was used to measure NO2^− levels according to manufacturer's instructions (Cayman).
Site-directed mutagenesis and transfection. cDNAs encoding wild type (WT) eNOS and WT-ETB from human were cloned into the mammalian expression vector pCMV6 (Origene). The C405A-ETB mutant was purchased from Genewiz (South Plainfield, N.J.). […] After this time, the medium was replaced with Dulbecco's Modified Eagle Medium (Gibco) supplemented with 10% FBS, and experiments were performed after 24 h.

For endothelin-1 [ET-1], the “NO2^− generation” value ([1]; ET-1 10 nM, maximum effect at 10 min, HPAECs, vs V 29.4±3.6, n=3) was 139.4±31.8 μM/μg protein, the “total NO. metabolite (NOx: NO2^−+NO3^−) formation” value ([1]; ET-1 (10 nM) stimulated HPAECs, without or with aldosterone, n=3) was 157.9±12.7 μM/μg protein and the “NO2^−/NO3^− ratio compared to V” value ([1]; ET-1 alone, HPAECs) was “did not affect”. For the same molecule, the “levels of 3-nitrotyrosine” value [2] was 31.2±3.2 arb. units, the “association between PGC-1α and SF (co-immunoprecipitation)” value [3] was 1260±104 arb. units and the “H2O2 levels compared to V-treated cells” value [4] was “no effect”. For the same molecule, the eNOS activity [5] was 18.5±3.5 [^14C] L-citrulline c.p.m./μg protein, the “CYP11B2 protein expression levels” value ([6]; ET-1 1 nM) was 157.3±27.5 % control and the “CYP11B2 protein expression levels” value ([6]; ET-1 10 nM) was 180.4±13.4 % control. The “CYP11B2 protein expression levels” value ([6]; ET-1 100 nM) was 234.8±4.3 % control, the “PGC-1α protein expression levels” value ([7]; ET-1 1 nM) was 176.5±52.8 % control and the “PGC-1α protein expression levels” value ([7]; ET-1 10 nM) was 224.7±68.1 % control. For the same molecule, the “PGC-1α protein expression levels” value ([7]; ET-1 100 nM) was 296.7±145.8 % control, the SF protein levels ([7]; ET-1, 24 h) was “no effect” and the “aldosterone levels in the cell culture medium” value ([8]; ET-1 1 nM) was 241.1±44.8 % control. For the same molecule, the “aldosterone levels in the cell culture medium” value ([8]; ET-1 10 nM) was 283.5±94.7 % control, the “aldosterone levels in the cell culture medium” value ([8]; ET-1 100 nM) was 396.0±116.5 % control and the “SF binding to the CYP11B2 promoter” value [9] was 61.6±9.3 arb. units.

Cc1cc(C)c(/C=C2\C(=O)Nc3ccccc32)[nH]1 [SU-5416] was tested, and the “increase in plasma aldosterone levels” value [10] was 418%.

B1: WT-ETB: wild type human ETB expressed in COS-7 cells (protein)
chain: T1 sequence (P24530 27-442)
B1 was tested, and the “disulfide bond formation of ETB” value [11] was “formation of one or two disulfide bonds; also recorded: formation of 1 or 2 disulfide bonds” and the “decrease of ET-1-stimulated NO2^− formation by H2O2 compared to V-treated cells” value [12] was 78.0%.

B2: C405A-ETB (protein)
chain: T1 sequence (P24530 27-442) with C379A
In the case of B2, the “disulfide bond formation of ETB” value [11] is reported as “resistant to the formation of disulfide bonds; also recorded: resistant to disulfide bond formation” and the “decrease of ET-1-stimulated NO2^− formation by H2O2 compared to V-treated cells” value [12] is reported as 45.0%.

Source: patent US9605047B2, “Compositions and methods for treating hypertension” (The Brigham and Women's Hospital, Inc., priority 2012, dated 2017)
